O=C(O)COc1ccc(Cl)cc1
solubility (mole fraction)
Conditions | 283.15 K | 288.15 K | 293.15 K | 298.15 K | 303.15 K | 308.15 K | 313.15 K | 318.15 K | 323.15 K
in 1,4-dioxane | – | 0.113 | 0.124 | 0.135 | 0.146 | 0.16 | 0.176 | 0.194 | 0.212
in acetonitrile | 0.00781 | 0.00938 | 0.0114 | 0.0134 | 0.0159 | 0.0198 | 0.0241 | 0.0298 | 0.0359
in ethanol | 0.0308 | 0.0347 | 0.0406 | 0.0472 | 0.0545 | 0.0643 | 0.0796 | 0.0962 | 0.114
in ethyl acetate | 0.0266 | 0.0303 | 0.036 | 0.0413 | 0.0468 | 0.0537 | 0.0637 | 0.0731 | 0.0827
in ethyl formate | 0.0139 | 0.0164 | 0.0193 | 0.0223 | 0.0254 | 0.0299 | 0.036 | 0.0423 | 0.0487
in isobutanol | 0.0146 | 0.0178 | 0.0224 | 0.0286 | 0.0365 | 0.0453 | 0.0558 | 0.0688 | 0.0843
in isopropanol | 0.0214 | 0.0267 | 0.0324 | 0.039 | 0.0476 | 0.0586 | 0.0703 | 0.0844 | 0.0997
in methyl acetate | 0.0285 | 0.0325 | 0.0379 | 0.0433 | 0.0496 | 0.0567 | 0.0659 | 0.0766 | 0.0882
in n-butanol | 0.0243 | 0.0282 | 0.0343 | 0.0415 | 0.0501 | 0.0604 | 0.0721 | 0.0855 | 0.101
in n-butyl acetate | 0.0218 | 0.0246 | 0.0289 | 0.0334 | 0.0387 | 0.0446 | 0.0514 | 0.0593 | 0.0682
in n-propanol | 0.0255 | 0.0292 | 0.0348 | 0.0415 | 0.0506 | 0.0618 | 0.0748 | 0.089 | 0.11
in n-propyl acetate | 0.0235 | 0.0268 | 0.0303 | 0.035 | 0.0398 | 0.0454 | 0.0524 | 0.0604 | 0.0698
in sec-butanol | 0.0224 | 0.0279 | 0.034 | 0.0413 | 0.0505 | 0.0617 | 0.0745 | 0.0888 | 0.107

Reference: BigSolDB 2.1
